Where two headings read alike, the source gives them in different places.
Assays:
Type in all cases: in vivo
Pyricularia = conditions: rice
[1] = system: Erysiphe graminis f.sp. hordei; assay: Erysiphe test (barley)/protective; conditions: protective, application rate 50 g/ha, evaluation 7 days after inoculation
Protocol: Erysiphe test (barley)/protective
Solvent: 50 parts by weight of dimethylformamide
Emulsifier: 1 part by weight of alkylaryl polyglycol ether
To produce a suitable preparation of active compound, 1 part by weight of active compound or a combination of active compound is mixed with the stated amounts of solvent and emulsifier, and the concentrate is diluted with water to the desired concentration, or a commercial formulation of active compound or active compound combination is diluted with water to the desired concentration.
To test for protective activity, young plants are sprayed with the preparation of active compound at the stated application rate.
1 day after the treatment, the plants are dusted with spores of Erysiphe graminis f.sp. hordei.
The plants are placed in a greenhouse at a temperature of about 20° C. and a relative atmospheric humidity of about 80% to promote the development of mildew pustules.
Evaluation is carried out 7 days after the inoculation. 0% means an efficacy which corresponds to that of the control, whereas an efficacy of 100% means that no infection is observed.

Pyricularia oryzae = conditions: rice, protective, evaluation 4 days after inoculation

With `CC(NC(=O)C(C#N)C(C)(C)C)c1ccc(Cl)cc1Cl` (stereo not shown) [(IX), diclocymet] the Efficacy in % (Pyricularia; 10 g/10 acres, a: inoculation one week after treatment) was 37.5%, the Efficacy in % (Pyricularia; 20 g/10 acres, a: inoculation one week after treatment) was 83.2% and the Efficacy in % (Pyricularia; 100 g/10 acres, b: inoculation two weeks after treatment) was 27.8%.

Molecule `O=C(Nc1ccccc1)N(Cc1ccc(Cl)cc1)C1CCCC1` [(V)] has an Efficacy in % [1] of 0%.

Molecule `CCC1(C(=O)NC(C)c2ccc(Cl)cc2)C(C)C1(Cl)Cl` (stereo not shown) [(II), N-[1-(4-chlorophenyl)ethyl]-2,2-dichloro-1-ethyl-3-methylcyclopropane-carboxamide] has an Efficacy in % (Pyricularia; 100 g/10 acres, a: inoculation one week after treatment) of 0% and an Efficacy in % (Pyricularia oryzae; application rate 50 g/ha) of 29%.

`N#Cc1ccccc1NC(=O)c1snc(Cl)c1Cl` [(I), 2′-cyano-3,4-dichloroisothiazole-5-carboxanilide] was tested, and the Efficacy in % (Pyricularia; 10 g/10 acres, b: inoculation two weeks after treatment) was 12.6% and the Efficacy in % (Pyricularia; 20 g/10 acres, b: inoculation two weeks after treatment) was 75%.

For `OC(Cc1ccccc1Cl)(Cn1nc[nH]c1=S)C1(Cl)CC1` (stereo not shown) [(IV-c), Prothioconazole], the Efficacy in % (Pyricularia oryzae; application rate 100 g/ha) was 29%.

`CC(C)(C)C(O)(CCc1ccc(Cl)cc1)Cn1cncn1` (stereo not shown) [(IV-b)] was tested, and the Efficacy in % (Pyricularia oryzae; application rate 100 g/ha) was 0%.
